Assay results as given in patent US20240299321A1, “METHODS TO SENSITIZE CANCER CELLS AND STANDARDIZED SCREENING ASSAY FOR IMMUNOTHERAPY” (THE TRUSTEES OF INDIANA UNIVERSITY, priority 2020, published 2024).

Experiments:
[1] = system: EO771 (Luc+OVA+) tumor organoids; assay: Intra-tumor infiltration of T cells in tumor organoids; format: cell-based, mouse; conditions: 48 h treatment, then co-culture with OT-I T cells
Experimental: To evaluate intra-tumor infiltration of T cells, EO771 (Luc+OVA+) tumor organoids were treated with indicated drugs for 48 h, and then co-cultured with OT-I T cells. After co-culture for 48 h, the organoids with T cells inside or attached were dissociated by TrypLE Express (Thermo Fisher) into single cells and stained with APC/Cy7-conjugated anti-mouse CD8 (Biolegend) and SYTOX Blue reagent for 15 min. The CD8+ T cell proportions from tumor organoids were analyzed by flow cytometry.

EO771 tumors = assay: EO771 orthotopic breast tumor model in immunocompetent C57BL/6 mice; format: in vivo; conditions: 20 mg kg-1 intraperitoneal, 3 times/week for 2 weeks
Experimental: T cell effector function analysis: We measured cytokine and cytolytic granule production (IFNγ, GZMB and TNFα) of CD8+ T cells from mouse tumor samples and tumor organoid-T cell co-culture. Briefly, CD8+ T cells were placed into the 24-well plate at 1×10^6 cells/well, stimulated with 1 μM ionomycin and 50 ng ml-1 phorbol 12-myristate 13-acetate (PMA) (Sigma-Aldrich) for 4 h, in the presence of 5 μg ml-1 Brefeldin A (BFA), with the purpose to amplify the expression of intracellular cytokines61. The cells were stained with APC/Cy7-conjugated anti-CD8a (Biolegend) for 15 min and then fixed by 4% PFA. After washing, cells were stained with PerCP/Cy7-conjugated anti-GZMB, APC-conjugated anti-IFNγ and PE-conjugated anti-TNFα (Biolegend) for 15 min. In flow cytometric analyses, T cells stained with isotype control antibodies were used as negative controls for gating the cytokine or granule-producing cells. For T cells from tumor organoid-T cell co-culture, tumor organoids were first digested into single cells with TrypLE Express at 37° C. before APC/Cy7-conjugated anti-CD8a staining. In the IFNγ and TNFα secretion assay (Biolegend), T cells were stimulated with ionomycin and PMA without the presence of BFA. The media were collected for ELISA assay.
Immunohistochemistry (IHC) and Immunofluorescence (IF) analysis of tumor organoids: Tumor organoids were gently centrifuged at 100 rcf from organoid culture medium and then embedded in 2% agar. Tumor organoids were fixed in 4% paraformaldehyde solution for overnight at room temperature. The samples were replaced with 70% ethanol and later embedded in paraffin blocks. Paraffin sections were cut at 5 μm thickness, attached on slides, heated at 60° C. for 1 h and then overnight at 37° C. The slides were stained with hematoxylin and eosin (H&E). IHC staining follows the protocol described62. Mouse-specific antibodies for CD8α (Cell Signaling Technology, clone D4W2Z, 1:400 dilution), cleaved caspase3 (Cell Signaling Technology, clone D175, 1:400 dilution) and Ki67 (Cell Signaling Technology, clone D3B5, 1:400 dilution) were used for IHC staining. The DAB peroxidase substrate kit (Vector laboratories Inc.) was used to visualize the antibodies. For IF analysis, the sample slides were blocked 3% BSA for 40 min after hydration. The slides were stained with primary antibodies including EpCAM (Abcam, 1:400 dilution), FITC-conjugated anti-α-SMA (Genetex, 1:400 dilution) and AF594-conjugated anti-CD31 (Biolegend) for 1 h. For EpCAM staining, the slide was further stained with secondary antibody Alexa Fluor 647-conjugated anti-rabbit IgG (Biolegend, 1:200) for 40 min. The fluorescence images were captured under a Leica DM4B microscope.
Animal studies: All animal experiments were performed in accordance with the National Institutes of Health's Animal Use Guidelines and protocols approved by the Animal Care and Use Committee of Indiana University School of Medicine. To examine the tumorigenic potential of tumor organoids, tumor organoids with different sizes (diameter of 30-70, 70-150, and 150-500 μm) were orthotopically injected into fat pad of the 4th mammary gland in female C57BL/6 mice. Each mouse was injected with a total of 2×10^5 tumor cells. 5 mice were used in each group. Tumors were measured in two dimensions using a manual caliper. Tumor volume was calculated using the following formula: V=0.5×length×width×width. Tumor volume was measured every 3 days. Tumors were harvested 22 days after injection. The tumor growth, volume and weight were analyzed. To evaluate the anti-tumor effect of drugs in immunocompetent C57BL/6 mice and immunodeficient nude (NU/J) mice, 2×10^5 EO771 cells were orthotopically injected into fat pad of the 4th mammary gland in female mice. […]

## COc1ccccc1S(=O)(=O)Nc1ccc2c(c1)CN(C)C(=O)N2 [PFI-1]
[1]
  CD8+ T cell infiltration in the tumor organoids: poor T cell infiltration
EO771 tumors
  anti-tumor effect in animal experiments: no anti-tumor effect
